Data published in patent US20060142348A1, “Aryl sulfonamide peri-substituted bicyclics for occlusive artery disease” (deCODE Chemistry, Inc., priority 2004, published 2006).

Target: T1, prostanoid EP3 receptors (Homo sapiens, UniProt P43115)
T1 sequence (P43115 1-365 isoform P43115-3): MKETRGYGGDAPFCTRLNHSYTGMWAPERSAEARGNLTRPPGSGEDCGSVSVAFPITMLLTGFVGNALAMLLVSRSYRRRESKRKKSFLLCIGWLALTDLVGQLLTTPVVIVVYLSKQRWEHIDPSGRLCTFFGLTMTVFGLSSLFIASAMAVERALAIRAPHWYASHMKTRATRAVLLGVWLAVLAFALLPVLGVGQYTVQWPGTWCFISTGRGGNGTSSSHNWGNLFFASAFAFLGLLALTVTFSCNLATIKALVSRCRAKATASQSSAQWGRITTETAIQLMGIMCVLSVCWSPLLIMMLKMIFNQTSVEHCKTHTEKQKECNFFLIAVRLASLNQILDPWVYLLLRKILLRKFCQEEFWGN
Assay: binding on prostanoid EP3 receptors (method of Abramovitz et al.)
Settings: read-out: Activity (EP3 receptor binding IC50)
Procedure: The compounds of the invention may be assayed for their binding on prostanoid EP3 receptors according to the method of Abramovitz et al. [Bioch. Biophys. Actas 1473, 285-293 (2000)]. All of the examples in the tables below have been synthesized, characterized and tested for EP3 receptor binding.
The compounds of the invention were assayed for their binding on prostanoid EP3 receptors according to the method of Abramovitz et al. [Bioch. Biophys. Acta, 1473, 285-293 (2000)]. […] Compounds with IC50<1 μM are shown as +++; compounds with IC50<1-10 μM are shown as ++; and compounds with IC50>10 μM are shown as +.

IC50 [nM] | Structure (SMILES)
< 1000 | Cn1cc(Cc2ccc3ccccc3c2)c2c(-c3cc(NS(=O)(=O)c4cc(Cl)c(Cl)s4)n[nH]3)cccc21 [Compound B01, 4,5-Dichloro-thiophene-2-sulfonic acid [5-(1-methyl-3-naphthalen-2-ylmethyl-1H-indol-4-yl)-1H-pyrazol-3-yl]-amide]
1000 to 10000 | Cn1cc(Cc2ccc3ccccc3c2)c2c(-c3cc(N)nn3S(=O)(=O)c3cc(Cl)c(Cl)s3)cccc21 [Compound B02, 1-(4,5-Dichloro-thiophene-2-sulfonyl)-5-(1-methyl-3-naphthalen-2-ylmethyl-1H-indol-4-yl)-1H-pyrazol-3-ylamine]
1000 to 10000 | Cn1cc(Cc2ccc3ccccc3c2)c2c(-c3cccc(NS(=O)(=O)c4cc(Cl)c(Cl)s4)c3)cccc21 [Compound B03, 4,5-Dichloro-thiophene-2-sulfonic acid[3-(1-methyl-3-naphthalen-2-ylmethyl-1H-indol-4-yl)-phenyl]-amide]
1000 to 10000 | Cn1cc(Cc2ccc3ccccc3c2)c2c(-c3ccc(NS(=O)(=O)c4cc(Cl)c(Cl)s4)cc3)cccc21 [Compound B04, 4,5-Dichloro-thiophene-2-sulfonic acid[4-(1-methyl-3-naphthalen-2-ylmethyl-1H-indol-4-yl)-phenyl]-amide]
1000 to 10000 | Cc1cn(Cc2ccc(F)c(F)c2)c2c(-c3ccc(NS(C)(=O)=O)cc3)cc(F)cc12 [Compound B06, N-{4-[1-(3,4-Difluoro-benzyl)-5-fluoro-3-methyl-1H-indol-7-yl]-phenyl}-methanesulfonamide]
> 10000 | Cc1cn(Cc2ccc(F)c(F)c2)c2c(-c3ccc(NS(=O)(=O)C(F)(F)F)cc3)cc(F)cc12 [Compound B07, N-{4-[1-(3,4-Difluoro-benzyl)-5-fluoro-3-methyl-1H-indol-7-yl]-phenyl}-C,C,C-trifluoro-methanesulfonamide]
1000 to 10000 | Cn1cc(Cc2ccc3ccccc3c2)c2c(-c3ccc(NS(=O)(=O)C(F)(F)F)cc3)cccc21 [Compound B08, C,C,C-Trifluoro-N-[4-(1-methyl-3-naphthalen-2-ylmethyl-1H-indol-4-yl)-phenyl]-methanesulfonamide]
> 10000 | Cc1cn(Cc2ccc(Cl)cc2Cl)c2c(-c3ccc(NS(C)(=O)=O)cc3)cc(F)cc12 [Compound B09, N-{4-[1-(2,4-Dichloro-benzyl)-5-fluoro-3-methyl-1H-indol-7-yl]-phenyl}-methanesulfonamide]
1000 to 10000 | Cc1cn(Cc2ccc(Cl)cc2Cl)c2c(-c3nnc(NC(=O)C(F)(F)F)o3)cc(F)cc12 [Compound B10, N-{5-[1-(2,4-Dichloro-benzyl)-5-fluoro-3-methyl-1H-indol-7-yl]-[1,3,4]oxadiazol-2-yl}-2,2,2-trifluoro-acetamide]
1000 to 10000 | Cc1cn(Cc2ccc(Cl)cc2Cl)c2c(-c3nnc(NS(C)(=O)=O)o3)cc(F)cc12 [Compound B11, N-{5-[1-(2,4-Dichloro-benzyl)-5-fluoro-3-methyl-1H-indol-7-yl]-[1,3,4]oxadiazol-2-yl}-methanesulfonamide]
< 1000 | Cc1cn(Cc2ccc(Cl)cc2Cl)c2c(-c3nnc(NS(=O)(=O)c4cc(F)c(F)cc4F)o3)cc(F)cc12 [Compound B12, N-{5-[1-(2,4-Dichloro-benzyl)-5-fluoro-3-methyl-1H-indol-7-yl]-[1,3,4]oxadiazol-2-yl}-2,4,5-trifluoro-benzenesulfonamide]
< 1000 | Cc1cn(Cc2ccc(Cl)cc2Cl)c2c(-c3nnc(NS(=O)(=O)c4cc(Cl)c(Cl)s4)o3)cc(F)cc12 [Compound B13, 4,5-Dichloro-thiophene-2-sulfonic acid {5-[1-(2,4-dichloro-benzyl)-5-fluoro-3-methyl-1H-indol-7-yl]-[1,3,4]oxadiazol-2-yl}-amide]
1000 to 10000 | Cc1cn(Cc2ccc(F)c(F)c2)c2c(-c3cc(NS(C)(=O)=O)n(C)n3)cc(F)cc12 [Compound B14, N-{5-[1-(3,4-Difluoro-benzyl)-5-fluoro-3-methyl-1H-indol-7-yl]-2-methyl-2H-pyrazol-3-yl}-methanesulfonamide]
1000 to 10000 | Cc1cn(Cc2ccc(F)c(F)c2)c2c(-c3cc(NS(=O)(=O)c4cc(Cl)c(Cl)s4)n(C)n3)cc(F)cc12 [Compound B15, 4,5-Dichloro-thiophene-2-sulfonic acid {5-[1-(3,4-difluoro-benzyl)-5-fluoro-3-methyl-1H-indol-7-yl]-2-methyl-2H-pyrazol-3-yl}-amide]
> 10000 | Cc1cn(Cc2ccc(F)c(F)c2)c2c(-c3cc(NS(C)(=O)=O)no3)cc(F)cc12 [Compound B16, N-{5-[1-(3,4-Difluoro-benzyl)-5-fluoro-3-methyl-1H-indol-7-yl]-isoxazol-3-yl}-methanesulfonamide]
1000 to 10000 | CC(=O)Nc1ccc(-c2cccc3c2c(Cc2ccc4ccccc4c2)cn3C)cc1 [Compound B17, N-[4-(1-Methyl-3-naphthalen-2-ylmethyl-1H-indol-4-yl)-phenyl]-acetamide]
< 1000 | Cn1cc(Cc2ccc3ccccc3c2)c2c(-c3ccc(NC(=O)C(F)(F)F)cc3)cccc21 [Compound B18, 2,2,2-Trifluoro-N-[4-(1-methyl-3-naphthalen-2-ylmethyl-1H-indol-4-yl)-phenyl]-acetamide]
< 1000 | Cc1cn(Cc2ccc(Cl)cc2Cl)c2c(-c3nnc(NS(=O)(=O)c4ccc(F)c(F)c4)o3)cc(F)cc12 [Compound B19, N-{5-[1-(2,4-Dichloro-benzyl)-5-fluoro-3-methyl-1H-indol-7-yl]-[1,3,4]oxadiazol-2-yl}-3,4-difluoro-benzenesulfonamide]
< 1000 | Cc1cn(Cc2ccc(Cl)cc2Cl)c2c(-c3nnc(NS(=O)(=O)c4ccc(Cl)c(Cl)c4)o3)cc(F)cc12 [Compound B20, 3,4-Dichloro-N-{5-[1-(2,4-dichloro-benzyl)-5-fluoro-3-methyl-1H-indol-7-yl]-[1,3,4]oxadiazol-2-yl}-benzenesulfonamide]
1000 to 10000 | Cc1cn(Cc2ccc(Cl)cc2Cl)c2c(-c3nnc(NC(=O)c4ccc(F)cc4)o3)cc(F)cc12 [Compound B23, N-{5-[1-(2,4-Dichloro-benzyl)-5-fluoro-3-methyl-1H-indol-7-yl]-[1,3,4]oxadiazol-2-yl}-4-fluoro-benzamide]
1000 to 10000 | Cc1cn(Cc2ccc(Cl)cc2Cl)c2c(-c3nnc(NC(=O)c4ccno4)o3)cc(F)cc12 [Compound B24, Isoxazole-5-carboxylic acid {5-[1-(2,4-dichloro-benzyl)-5-fluoro-3-methyl-1H-indol-7-yl]-[1,3,4]oxadiazol-2-yl}-amide]
> 10000 | Cc1cn(Cc2ccc(Cl)cc2Cl)c2c(-c3nnc(NC(=O)c4cc(Cl)cc(Cl)c4)o3)cc(F)cc12 [Compound B25, 3,5-Dichloro-N-{5-[1-(2,4-dichloro-benzyl)-5-fluoro-3-methyl-1H-indol-7-yl]-[1,3,4]oxadiazol-2-yl}-benzamide]
< 1000 | Cc1cn(Cc2ccc(Cl)cc2Cl)c2c(-c3nnc(NC(=O)c4ccc(F)c(F)c4)o3)cc(F)cc12 [Compound B26, N-{5-[1-(2,4-Dichloro-benzyl)-5-fluoro-3-methyl-1H-indol-7-yl]-[1,3,4]oxadiazol-2-yl}-3,4-difluoro-benzamide]
1000 to 10000 | Cc1cn(Cc2ccc(Cl)cc2Cl)c2c(-c3nnc(NC(=O)c4ccc(F)cc4F)o3)cc(F)cc12 [Compound B27, N-{5-[1-(2,4-Dichloro-benzyl)-5-fluoro-3-methyl-1H-indol-7-yl]-[1,3,4]oxadiazol-2-yl}-2,4-difluoro-benzamide]
1000 to 10000 | Cc1cn(Cc2ccc(Cl)cc2Cl)c2c(-c3nnc(NC(=O)c4ccc(Cl)cc4Cl)o3)cc(F)cc12 [Compound B28, 2,4-Dichloro-N-{5-[1-(2,4-dichloro-benzyl)-5-fluoro-3-methyl-1H-indol-7-yl]-[1,3,4]oxadiazol-2-yl}-benzamide]
< 1000 | Cc1cn(Cc2ccc(Cl)cc2Cl)c2c(-c3nnc(NC(=O)c4ccc5c(c4)OC(F)(F)O5)o3)cc(F)cc12 [Compound B29, 2,2-Difluoro-benzo[1,3]dioxole-5-carboxylic acid {5-[1-(2,4-dichloro-benzyl)-5-fluoro-3-methyl-1H-indol-7-yl]-[1,3,4]oxadiazol-2-yl}-amide]
< 1000 | Cc1cn(Cc2ccc(Cl)cc2Cl)c2c(-c3nnc(NC(=O)c4ccco4)o3)cc(F)cc12 [Compound B30, Furan-2-carboxylic acid {5-[1-(2,4-dichloro-benzyl)-5-fluoro-3-methyl-1H-indol-7-yl]-[1,3,4]oxadiazol-2-yl}-amide]
< 1000 | Cc1cn(Cc2ccc(F)c(F)c2)c2c(-c3cc(NS(=O)(=O)c4cc(Cl)c(Cl)s4)no3)cc(F)cc12 [Compound B31, 4,5-Dichloro-thiophene-2-sulfonic acid {5-[1-(3,4-difluoro-benzyl)-5-fluoro-3-methyl-1H-indol-7-yl]-isoxazol-3-yl}-amide]
< 1000 | Cc1cn(Cc2ccc(F)c(F)c2)c2c(-c3cc(NS(=O)(=O)c4ccc(F)c(F)c4)no3)cc(F)cc12 [Compound B32, N-{5-[1-(3,4-Difluoro-benzyl)-5-fluoro-3-methyl-1H-indol-7-yl]-isoxazol-3-yl}-3,4-difluoro-benzenesulfonamide]

Structure (SMILES) | IC50 [nM]
Cn1cc(Cc2ccc3ccccc3c2)c2c(-c3ccc(NS(C)(=O)=O)cc3)cccc21 [Compound B05, N-[4-(1-Methyl-3-naphthalen-2-ylmethyl-1H-indol-4-yl)-phenyl]-methanesulfonamide] | 1000 to 10000
